These results are taken from patent US20240059712A1, “BIFUNCTIONAL COMPOUNDS AND PHARMACEUTICAL USES THEREOF” (priority 2022, published 2024).

For one test, the target named is T1, KRAS^G12D protein (Homo sapiens, UniProt P01116, G12D).
T1 construct: host or cells: Aspc-1 (AsPC-1) cells
The experiment in a line: Protein degradation study (western blot) in Aspc-1 cells. The format is cell-based. As to conditions: for inhibition at 0.005 µM / inhibition at 0.05 µM / inhibition at 0.001 µM: ASPC1, 24 h, 24 hours, read-out: Rate of degradation; for inhibition at 0.005 µM: Aspc-1 cells treated with 0.005 μM compound; for inhibition at 0.05 µM: Aspc-1 cells treated with 50 nM compound; for DC50: Aspc-1 cells, half-maximum degradation concentration, read-out: DC50 of compounds induced Ras G12D protein degradation; for inhibition at 0.001 µM: Aspc-1 cells treated with 1 nM compound. How it is done:
Aspc-1 (Cobioer, CBP60546) cells in exponential growth phase were inoculated on a 6-well cell culture plate (Corning, 3516) at density of 1E6/well; and cells in the plate were cultured in 37° C. incubator containing 5%-carbon dioxide. The next day, testing compounds were dissolved in DMSO (Sigma, RNBF5902) for the preparation of a 10-mM concentration stock solution. The stock solution was diluted with complete medium (RPMI-1640 supplemented with 10% fetal bovine serum, 1% penicillin-streptomycin), yielding working solutions of various concentrations. The plate, after the addition of compounds, was placed in a 5% carbon dioxide incubator, and incubated at 37° C. for 24 hours (final DMSO concentration was 0.1%). The plate was then removed from the incubator, and the cells were washed twice with precooled PBS (Gibco, 14190250), followed by addition of 80-μL RIPA lysis buffer (containing protease inhibitor (Invitrogen™, AM2696)) to each well. The adherent cells were scraped off with a cell scraper, and the cell lysate was transferred to a 1.5-mL centrifuge tube followed with a 30-minute incubation on ice. The lysate was then clarified with centrifugation at 14000 rpm for 10 min at 4° C. The supernatant was transferred into a new 1.5-mL centrifuge tube, and protein concentration was measured with BCA protein detection kit (Thermo Fisher, 23225). G12D protein level was assessed by western blot.
A mixture of cell lysate (40 μL) and loading buffer (10 μL, 5×SDS (Beyotime, P0015L)) was denatured in a water-bath at 95° C. for 10 min. The denatured protein sample, at 30 μL/well, was loaded into corresponding well of 4-20% Bis-Tris gel (Kingsley, M00656). Protein samples were initially electrophoresed at 80 V for 30 minutes, followed by 120 V for 40 minutes, until the bromophenol blue strip ran to an appropriate position. After electrophoresis, iBlot2 (Life Technologies, IB21001) was used to transfer the separated samples onto PVDF film. The PVDF membrane was washed with double-distilled water and then blocked in TBST (Thermo Scientific, 28360) buffer containing 5% non-fat milk, for 2 hours. Blocked membrane was rinsed with tris-buffered saline tween-20 (Thermo Scientific, 28360, TBST) three times, 10 minutes each. Membrane was then incubated with 1:1000 diluted KRAS primary antibody (CST, cat #14429S) overnight at 4° C. Membrane was rinsed in a way described previously followed by 1 hour incubation of secondary antibody at room temperature. After washing the film for three times with TBST, ECL color developing solution was applied, and image was captured with Biorad Chemi Doc gel imager. The band gray value was quantified (Image Lab), and protein degradation level was calculated according to the following formula:
Level of RAS protein expression=(RAS-compound/GAPDH)/(RAS-DMSO/GAPDH)
Level of degradation (%)=(1−Rate of RAS protein expression)×100
Symbols of −, +, ++, +++ indicate that the degradation level of Ras protein induced by testing compounds are […], 11 to 30%, 31 to 60% and greater than 60%, respectively.
Half-maximum degradation concentrations (DC50s) of testing compounds were calculated using GraphPad Prism and their values were shown in Table 6. Symbols of […] represent DC50s equal or less than 10 nM, 11-50 nM, 51-100 nM, and 101-200 nM, respectively.

Another test has as its system Aspc-1 cells. The experiment in a line: Cell proliferation study (Cell Titer Glo, 72 hours). The format is cell-based. As to conditions: Homo sapiens, ASPC1, read-out: IC50, inhibitory effect on cellular proliferation. How it is done: Aspc-1 (Cobioer, CBP60546) cells were grown in RPMI 1640 (Gibco, 61870127) supplemented with 10% fetal bovine serum (Gibco, 10099141), 1% penicillin-streptomycin (Gibco, 15070-063). Aspc-1 cells in exponential growth phase were seeded into 96-well plate (Corning, 3599) at density of 4×10^3/well. Cells were cultured overnight at 37° C. with 5% CO2. On the next day, cells were treated with compound at various concentrations for 72 hours in 37° C., 5% CO2 incubator (final DMSO concentration is 0.1%). After treatment, the cell plates were added 100 μL Cell Tier Glo (Promega, G7573) to every well and incubated at RT for 10 minutes. Cell growth status was measured with Cell Tier Glo (Promega, G7573) following manufacturer's directions. The inhibition curve was obtained with GraphPad 7.0 software using four-parameter equation.

T1 sequence (P01116 1-188 isoform P01116-2 G12D): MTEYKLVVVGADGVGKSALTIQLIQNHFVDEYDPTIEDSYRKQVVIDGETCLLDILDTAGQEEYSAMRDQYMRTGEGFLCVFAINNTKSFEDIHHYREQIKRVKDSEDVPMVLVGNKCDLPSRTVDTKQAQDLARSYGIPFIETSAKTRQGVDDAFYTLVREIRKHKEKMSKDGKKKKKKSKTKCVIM

`Nc1cc(Cl)c(C(F)(F)F)c(-c2ncc3c(N4CC5CCC(C4)N5)nc(OCC4(CN5CCC6(CC5)CC(N5CCC(c7ccc(NC8CCC(=O)NC8=O)cc7F)CC5)C6)CC4)nc3c2F)c1` (stereo not drawn) [Compound 21a]: on KRAS^G12D protein, the inhibition at 0.005 µM is 31 to 60%, the inhibition at 0.05 µM is greater than 60% and the half-maximal degradation concentration (DC50) is less than 10 nM. Further, the IC50 in the test with Aspc-1 cells is less than 100 nM.

Turning to `C#Cc1c(F)ccc2cc(O)cc(-c3ncc4c(N5CC6CCC(C5)N6)nc(OCC5(CN6CCC7(CC6)CC(N6CCC(c8ccc(NC9CCC(=O)NC9=O)cc8F)CC6)C7)CC5)nc4c3F)c12` (stereo not drawn) [Compound 12a], at KRAS^G12D protein, the inhibition at 0.001 µM is greater than 60%, the inhibition at 0.005 µM is greater than 60%, the inhibition at 0.05 µM was greater than 60% and the DC50 was less than 10 nM. Also, the IC50 in the test with Aspc-1 cells is less than 100 nM.

As for `C#Cc1c(F)ccc2cc(O)cc(-c3ccc4c(N5CC6CCC(C5)N6)nc(OCC5(CN6CCC7(CC6)CC(N6CCC(c8ccc9c(C%10CCC(=O)NC%10=O)nn(C)c9c8)CC6)C7)CC5)nc4c3F)c12` (stereo not drawn) [Compound 23a], on KRAS^G12D protein, the inhibition at 0.005 µM was greater than 60%, the inhibition at 0.05 µM is greater than 60% and the DC50 is less than 10 nM. In the test on Aspc-1 cells, the IC50 is less than 100 nM.

In the case of `C#Cc1c(F)ccc2cc(O)cc(-c3ncc4c(N5CC6CCC(C5)N6)nc(OCC5(CN6CCC7(CC6)CC(CN6CCC(c8ccc9c(C%10CCC(=O)NC%10=O)nn(C)c9c8)CC6)C7)CC5)nc4c3F)c12` (stereo not drawn) [Compound 29a], at KRAS^G12D protein, the inhibition at 0.005 µM is greater than 60%, the inhibition at 0.05 µM was 11 to 30% and the DC50 is less than 10 nM. For the same compound, the IC50 with Aspc-1 cells is less than 100 nM.

In the case of `C#Cc1c(F)ccc2cc(O)cc(-c3ncc4c(N5CC6CCC(C5)N6)nc(OCC5(CN6CCC7(CC6)CC(N6CCC(c8cc9c(cc8F)c(N8CCC(=O)NC8=O)nn9C)CC6)C7)CC5)nc4c3F)c12` [Compound 2a], at KRAS^G12D protein, the inhibition at 0.005 µM is greater than 60%, the inhibition at 0.05 µM was greater than 60% and the DC50 is less than 10 nM. In the test on Aspc-1 cells, the IC50 was less than 100 nM.

For the compound `C#Cc1c(F)ccc2cc(O)cc(-c3ncc4c(N5CC6CCC(C5)N6)nc(OCC5(CN6CCC7(CCC(CN8CCC(c9ccc%10c(C%11CCC(=O)NC%11=O)nn(C)c%10c9)CC8)CC7)CC6)CC5)nc4c3F)c12` (stereo not drawn) [Compound 26a], on KRAS^G12D protein, the inhibition at 0.005 µM was greater than 60%, the inhibition at 0.05 µM was 11 to 30% and the DC50 is less than 10 nM. Further, the IC50 with Aspc-1 cells was less than 100 nM.

Consider `C#Cc1c(F)ccc2cc(O)cc(-c3ncc4c(N5CC6CCC(C5)N6)nc(OCC5(CN6CCC(N7CC(CN8CCC(c9ccc%10c(C%11CCC(=O)NC%11=O)nn(C)c%10c9)CC8)C7)CC6)CC5)nc4c3F)c12` (stereo not drawn) [Compound 30a], for which, on KRAS^G12D protein, the inhibition at 0.005 µM is greater than 60%, the inhibition at 0.05 µM is greater than 60% and the DC50 was less than 10 nM. In addition, in the test with Aspc-1 cells, the IC50 is less than 100 nM.

Regarding `C#Cc1c(F)ccc2cccc(-c3ncc4c(N5CC6CCC(C5)N6)nc(OCC5(CN6CCC7(CC6)CC(N6CCC(c8ccc9c(C%10CCC(=O)NC%10=O)nn(C)c9c8)CC6)C7)CC5)nc4c3F)c12` (stereo not drawn) [Compound 16a], on KRAS^G12D protein, the inhibition at 0.005 µM is greater than 60% and the inhibition at 0.05 µM was greater than 60%. The IC50 in the test with Aspc-1 cells lay within 101 to 1000 nM.

Consider `C#Cc1c(F)ccc2cc(O)cc(-c3ncc4c(N5CC6CCC(C5)N6)nc(OCC5(CN6CCC7(CC6)CC(N6CCC(c8ccc9c(N%10CCC(=O)NC%10=O)nn(C)c9c8)CC6)C7)CC5)nc4c3F)c12` [Compound 1a], for which, on KRAS^G12D protein, the inhibition at 0.005 µM is greater than 60%, the inhibition at 0.05 µM is greater than 60% and the DC50 was less than 10 nM. The IC50 with Aspc-1 cells was less than 100 nM.

In the case of `C#Cc1c(F)ccc2cc(O)cc(-c3ncc4c(N5CC6CCC(C5)N6)nc(OCC5(CN6CCC7(CCC(N8CCC(c9ccc%10c(C%11CCC(=O)NC%11=O)nn(C)c%10c9)CC8)CC7)CC6)CC5)nc4c3F)c12` (stereo not drawn) [Compound 33a], at KRAS^G12D protein, the inhibition at 0.005 µM was greater than 60%, the inhibition at 0.05 µM is greater than 60% and the 50% degradation concentration (DC50) was less than 10 nM. Moreover, in the test with Aspc-1 cells, the IC50 is less than 100 nM.

In the case of `C#Cc1c(F)ccc2cccc(-c3ncc4c(N5CC6CCC(C5)N6)nc(OCC5(CN6CCC7(CC6)CC(N6CCC(c8ccc9c%10c(cccc8%10)C(=O)N9C8CCC(=O)NC8=O)CC6)C7)CC5)nc4c3F)c12` (stereo not drawn) [Compound 14a], at KRAS^G12D protein, the inhibition at 0.001 µM was greater than 60%, the inhibition at 0.005 µM was greater than 60%, the inhibition at 0.05 µM is greater than 60% and the DC50 was less than 10 nM. In addition, the IC50 in the test with Aspc-1 cells was 101 to 1000 nM.

Take `Cn1nc(N2CCC(=O)NC2=O)c2cc(F)c(C3CCN(C4CC5(CCN(CC6(COc7nc(N8CC9CCC(C8)N9)c8cc(Cl)c(-c9ccc(F)c%10sc(N)c(C#N)c9%10)c(F)c8n7)CC6)CC5)C4)CC3)cc21` [Compound 40a]: at KRAS^G12D protein, the inhibition at 0.005 µM was greater than 60% and the DC50 is less than 10 nM. Moreover, the IC50 in the test with Aspc-1 cells is less than 100 nM.

For `C#Cc1c(F)ccc2cc(O)cc(-c3ncc4c(N5CC6CCC(C5)N6)nc(OCC5(CN6CC7(CCC(CN8CCC(c9ccc%10c(C%11CCC(=O)NC%11=O)nn(C)c%10c9)CC8)CC7)C6)CC5)nc4c3F)c12` (stereo not drawn) [Compound 32a], at KRAS^G12D protein, the inhibition at 0.005 µM was greater than 60%, the inhibition at 0.05 µM was 31 to 60% and the half-maximal degradation concentration (DC50) was less than 10 nM. Further, in the test on Aspc-1 cells, the IC50 was less than 100 nM.

Take `C#Cc1c(F)ccc2cc(O)cc(-c3ncc4c(N5CC6CCC(C5)N6)nc(OCC5(CN6CCC7(CC6)CC(C(=O)N6CCC(c8ccc9c(C%10CCC(=O)NC%10=O)nn(C)c9c8)CC6)C7)CC5)nc4c3F)c12` (stereo not drawn) [Compound 28a]: at KRAS^G12D protein, the inhibition at 0.005 µM was greater than 60%, the inhibition at 0.05 µM is greater than 60% and the DC50 is less than 10 nM. In the test with Aspc-1 cells, the IC50 is less than 100 nM.

Consider `C#Cc1c(F)ccc2cc(O)cc(-c3ncc4c(N5CC6CCC(C5)N6)nc(OCC5(CN6CCC7(CCC(C(=O)N8CCC(c9ccc%10c(C%11CCC(=O)NC%11=O)nn(C)c%10c9)CC8)CC7)CC6)CC5)nc4c3F)c12` (stereo not drawn) [Compound 24a], for which, at KRAS^G12D protein, the inhibition at 0.005 µM is greater than 60%, the inhibition at 0.05 µM lay within 31 to 60% and the 50% degradation concentration (DC50) was less than 10 nM. For the same compound, in the test with Aspc-1 cells, the IC50 is less than 100 nM.

With `C#Cc1c(F)ccc2cc(O)cc(-c3ncc4c(N5CC6CCC(C5)N6)nc(OCC5(CN6CCC7(CC6)CC(N6CCC(c8cc9c(cc8F)c(N8CCC(=O)NC8=O)nn9C)C(F)(F)C6)C7)CC5)nc4c3F)c12` (stereo not drawn) [Compound 37a], the DC50 on KRAS^G12D protein was less than 10 nM. The IC50 in the test on Aspc-1 cells was less than 100 nM.

Regarding `Nc1cc(Cl)c(C(F)(F)F)c(-c2ncc3c(N4CC5CCC(C4)N5)nc(OCC4(CN5CCC6(CC5)CC(N5CCC(c7ccc8c9c(cccc79)C(=O)N8C7CCC(=O)NC7=O)CC5)C6)CC4)nc3c2F)c1` (stereo not drawn) [Compound 13a], on KRAS^G12D protein, the inhibition at 0.001 µM is greater than 60%, the inhibition at 0.005 µM is greater than 60%, the inhibition at 0.05 µM was greater than 60% and the half-maximal degradation concentration (DC50) was less than 10 nM. For the same compound, the IC50 with Aspc-1 cells was less than 100 nM.

Consider `C#Cc1c(F)ccc2cc(O)cc(-c3ncc4c(N5CC6CCC(C5)N6)nc(OCC5(CN6CCC(N7CC(C(=O)N8CCC(c9ccc%10c(C%11CCC(=O)NC%11=O)nn(C)c%10c9)CC8)C7)CC6)CC5)nc4c3F)c12` (stereo not drawn) [Compound 35a], for which, at KRAS^G12D protein, the inhibition at 0.005 µM lay within 31 to 60% and the inhibition at 0.05 µM is greater than 60%.
